In brackets after ≈: the same amount, converted by molar mass. Read-outs that look alike come from different tables or passages of the source. Peptide text beside a SMILES is read from it.
Experiments:
P. aeruginosa E411-17 = assay: microbe, parasite or virus in culture; assay type: cell-based, Pseudomonas aeruginosa
Procedure, shortened: (§1)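 Broth microdilution: log-phase cultures in tryptic soy broth diluted to OD600 0.001, exposed to two-fold diluted peptides at 37° C overnight, growth read at 630 nm. Medium effects on S. aureus USA300 tested with up to 200 mM NaCl, 2 mM CaCl2, 5-10% human serum, mouse plasma, fluids or tissue homogenate supernatants.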

E. coli E423-17 = assay: microbe, parasite or virus in culture; assay type: cell-based, Escherichia coli
Procedure, shortened: as §1

[1] = test system: human red blood cells (hRBCs); assay: Hemolytic assay; assay type: cell-based
Procedure, shortened: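 Washed hRBCs (2% v/v) exposed to peptide for 1 h at 37 °C, then centrifuged and hemoglobin in supernatant read at 545 nm. Lysis normalized to Triton X-100 (2% or 1%; 100%) and PBS (0%); HL50 is the peptide concentration giving 50% lysis, and CSI is HL50/MIC.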

[2] = test system: S. aureus JE2 (wild type)
Experimental: (§2) The antibacterial activity of peptides was evaluated using a standard broth microdilution protocol with minor modifications (Mishra, et al. (2017) Acta Biomater., 49:316-328). In brief, logarithmic phase bacterial cultures (i.e., optical density at 600 nm≈0.5) were diluted to 0.001 OD and aliquoted 90 μL per well into a 96-well polystyrene microplate. Added 10 μL peptides per well with various concentrations, plates were incubated at 37° C., overnight. Post incubation the plates are read at 630 nm using a ChroMate® Microplate Reader (GMI). […] To study the influence of medium conditions on the antimicrobial activity of peptides against S. aureus USA300 at different pHs (6.8, 7.2, and 8.0), 150 mM sodium chloride (NaCl), 5-10% of human serum, mouse plasma, and peritoneal fluid were included into the assays.

S. aureus ΔmprF mutant = conditions: Table 17; strain ΔmprF
Experimental: as §2

[3] = Cell viability assay (MTS); assay type: cell-based; conditions: human, read-out: LC50
Experimental: Peptides assessed for potential cytotoxicity using HepaRG (human hepatic progenitor cell line) and HEK-293 (human embryonic kidney) cells. Briefly, cells were seeded at a density of 1×10^4 per well in a tissue culture 96-well plate. For HepaRG cells, the working medium is prepared by adding the HepaRG Supplement to 100 ml/500 ml of Williams' Medium E and 1 ml/5 ml of GlutaMAX-1. For HEK-293 cells, DMEM supplemented with 10% fetal bovine serum (FBS) for both cell lines, and incubated at 37° C. in a 5% CO2 atmosphere for 24 hours. Culture medium was aspirated and replaced with fresh serum free media. Cells were exposed to different concentration of horine and verine for 1 hour at 37° C. in a 5% CO2 atmosphere. Post-incubation, the cells were washed and incubated with 100 μL of HepaRG specific/DMEM media containing 20 μL of MTS reagent for 2 hours at 37° C. Absorbance was read at 492 nm using a ChroMate® microplate reader (GMI).

Toxicity to cells [4] = assay type: cell-based; conditions: human, MRC9 human lung fibroblasts; read-out: LC50 (the source's name)
Toxicity to cells [5] = assay type: cell-based; conditions: splenocytes (mouse spleen), Spleenocytes, read-out: LC50 (the source's name)
Liver microsomal assay = assay type: in vitro ADME; conditions: in one hour
[6] = Stability in mouse plasma and peritoneal fluid; assay type: in vitro ADME; conditions: murine peritoneal fluids or plasma for 3 hours
Experimental: Stability of horine and verine was evaluated in the presence of mouse plasma and peritoneal fluid using SDS-PAGE electrophoresis. […] […] The gels were stained using the Coomassie Brilliant Blue G-250 dye.

[7] = E411-17, read-out: MIC P. aeruginosa E411-17
[8] = E423-17, read-out: MIC E. coli E423-17
[9] = HEK-293 (human embryonic kidney) cells, HEK293
[10] = HepaRG (human hepatic progenitor cell line)

Row | SMILES | MIC (P. aeruginosa E411-17; [7]) [µM] | MIC (E. coli E423-17; [8]) [µM] | HL50 [1] [µM] | MIC ([2]; JE2 (wild type)) [µM] | MIC (S. aureus ΔmprF mutant) [µM] | CC50 at 1 hour [3, 9] [µM] | CC50 at 1 hour [3, 10] [µM] | CC50 (Toxicity to cells [4]) [µM] | CC50 (Toxicity to cells [5]) [µM] | Degradation in liver microsomal assay (Liver microsomal assay) | Stability after incubation [6] | MIC (P. aeruginosa E411-17; Pseudomonas aeruginosa, E41117, read-out: MIC P. aeruginosa E411-17) [µM] | MIC (E. coli E423-17; Escherichia coli, E42317, read-out: MIC E. coli E423-17) [µM] | HL50 ([1]; Table 12) | MIC P. aeruginosa 411-17 (P. aeruginosa E411-17; Table 12) [µM] | MIC P. aeruginosa E411-17 (P. aeruginosa E411-17; Table 14) [µM] | MIC (E. coli E423-17; Table 14, read-out: MIC E. coli E423-17) [µM] | MIC ([2]; Table 17, strain JE2) [µM]
1 | CC(C)C[C@H](NC(=O)[C@H](CC(C)C)NC(=O)[C@H](CCCCN)NC(=O)[C@H](CC(C)C)NC(=O)CNC(=O)[C@H](CC(C)C)NC(=O)[C@H](CO)NC(=O)[C@H](CC(C)C)NC(=O)[C@H](CC(C)C)NC(=O)[C@H](CC(C)C)NC(=O)[C@H](CCCCN)NC(=O)[C@H](CC(C)C)NC(=O)CN)C(N)=O [DFT561, GLKLLLSLGLKLL] (H-GLKLLLSLGLKLL-NH2; N-terminus and C-terminus assumed) | >50 | >50 |  |  |  |  |  |  |  |  |  |  |  |  |  |  |  | 
2 | CC(C)C[C@H](NC(=O)[C@H](Cc1c[nH]c2ccccc12)NC(=O)[C@H](Cc1c[nH]c2ccccc12)NC(=O)[C@@H](N)Cc1c[nH]c2ccccc12)C(=O)N[C@@H](CCCNC(=N)N)C(=O)N[C@@H](CCCNC(=N)N)C(=O)N[C@@H](CCCNC(=N)N)C(=O)N[C@@H](Cc1c[nH]c2ccccc12)C(N)=O [Horine, WWWLRRRW] (H-WWWLRRRW-NH2; N-terminus and C-terminus assumed) | >32 | >32 | 150 | 4 (≈ 5.37 µg/mL) | 2 (≈ 2.69 µg/mL) | > 100 | > 80 | > 35 | > 50 | 5000 | stable and active |  |  |  |  |  |  | 
3 | CN[C@H](CC(C)C)C(=O)N[C@H]1C(=O)N[C@@H](CC(N)=O)C(=O)N[C@H]2C(=O)N[C@H]3C(=O)N[C@H](C(=O)N[C@H](C(=O)O)c4cc(O)cc(O)c4-c4cc3ccc4O)[C@H](O)c3ccc(c(Cl)c3)Oc3cc2cc(c3O[C@@H]2O[C@H](CO)[C@@H](O)[C@H](O)[C@H]2O[C@H]2C[C@](C)(N)[C@H](O)[C@H](C)O2)Oc2ccc(cc2Cl)[C@H]1O [Vancomycin] |  |  |  |  |  |  |  |  |  |  |  | > 8 | > 8 |  |  |  |  | 
4 | CC(C)[C@H](NC(=O)[C@H](Cc1c[nH]c2ccccc12)NC(=O)[C@H](Cc1c[nH]c2ccccc12)NC(=O)[C@H](Cc1c[nH]c2ccccc12)NC(=O)[C@H](Cc1c[nH]c2ccccc12)NC(=O)[C@H](CCCNC(=N)N)NC(=O)[C@H](CCCNC(=N)N)NC(=O)[C@@H](N)CCCNC(=N)N)C(N)=O [Verine, RRRWWWWV] (H-RRRWWWWV-NH2; N-terminus and C-terminus assumed) |  |  |  |  | 2 (≈ 2.66 µg/mL) | > 80 | > 80 | > 25 | > 12.5 | 5000 | stable and active |  |  | 130^2 μM | 12.5 (≈ 16.6 µg/mL) | 4 to 8 | 2 (≈ 2.66 µg/mL) | 4 (≈ 5.32 µg/mL)

— patent US12173088B2, “Anti-microbial peptides” (priority 2018, dated 2024)
